Assays:
Experiment in all cases: Test C postemergence
[1] = tested on: foxtail, giant; type: in vivo, Setaria faberii
Procedure, shortened: (§1)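 Greenhouse pot test: preemergence application onto freshly seeded loam/sand mix, postemergence application onto seedlings (1–4 leaves, 2–18 cm) in peat-vermiculite substrate. Responses scored visually 13 to 15 days later relative to controls, where 0 means no effect and 100 means complete control; a dash indicates no result.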

[2] = tested on: barnyardgrass; type: in vivo, Echinochloa crus-galli
Procedure, shortened: as §1

[3] = tested on: chickweed; type: in vivo, Stellaria media
Procedure, shortened: as §1

[4] = tested on: kochia; type: in vivo, Kochia scoparia
Procedure, shortened: as §1

[5] = tested on: lambsquarters; type: in vivo, Chenopodium album
Procedure, shortened: as §1

[6] = tested on: crabgrass, large; type: in vivo, Digitaria sanguinalis
Procedure, shortened: as §1

[7] = tested on: blackgrass; type: in vivo, Alopecurus myosuroides
Procedure, shortened: as §1

[8] = tested on: pigweed; type: in vivo, Amaranthus retroflexus; details: postemergence
Procedure, shortened: as §1

[9] = tested on: soybean; type: in vivo, Glycine max; details: postemergence
Procedure, shortened: as §1

[10] = tested on: ryegrass, Italian; type: in vivo, Lolium multiflorum; details: postemergence
Procedure, shortened: as §1

[11] = tested on: johnsongrass; type: in vivo, Sorghum halepense
Procedure, shortened: as §1

[12] = tested on: oat, wild; type: in vivo, Avena fatua
Procedure, shortened: as §1

[13] = tested on: ragweed; type: in vivo, Ambrosia elation; details: postemergence
Procedure, shortened: as §1

[14] = tested on: galium; type: in vivo, Galium aparine
Procedure, shortened: as §1

[15] = tested on: corn; type: in vivo, Zea mays
Procedure, shortened: as §1

[16] = tested on: wheat; type: in vivo, Triticum aestivum; details: postemergence
Procedure, shortened: as §1

[17] = tested on: velvetleaf; type: in vivo, Abutilon theophrasti; details: postemergence
Procedure, shortened: as §1

[18] = Postemergence, 31 g ai/ha, visually evaluated after 13 to 15 days
[19] = postemergence, 62 g ai/ha, scale 0 to 100
[20] = postemergence, 250 g ai/ha, scale 0 to 100 (0 no effect, 100 complete control)
[21] = postemergence, 125 g ai/ha, scale 0 to 100, 0 no effect, 100 complete control
[22] = 250 g ai/ha, scale 0 to 100 (0 no effect, 100 complete control)
[23] = 125 g ai/ha, scale 0 to 100, 0 no effect, 100 complete control

CCCNC(=O)c1cc(CCC)n(Cc2cc(C(F)(F)F)nn2C)n1 [Compound 198]
Plant response rating (scale of 0 to 100 where 0 is no effect and 100 is complete control), Foxtail, Giant [1, 18]: 10 | Foxtail, Giant plant response rating [1, 19]: 10 | Plant response rating, Foxtail, Giant [1, 20]: 55 | Plant response rating, Foxtail, Giant [1, 21]: 15 | Plant response rating (scale of 0 to 100 where 0 is no effect and 100 is complete control), Barnyardgrass [2, 18]: 5 | Barnyardgrass plant response rating [2, 19]: 15 | Plant response rating, Barnyardgrass [2, 20]: 35 | Plant response rating, Barnyardgrass [2, 21]: 15 | Plant response rating (scale of 0 to 100 where 0 is no effect and 100 is complete control), Chickweed [3, 18]: 70 | Chickweed plant response rating [3, 19]: 70 | Plant response rating, Chickweed [3, 20]: 80 | Plant response rating, Chickweed [3, 21]: 80 | Plant response rating (scale of 0 to 100 where 0 is no effect and 100 is complete control), Kochia [4, 18]: 80 | Kochia plant response rating [4, 19]: 80 | Plant response rating, Kochia [4, 20]: 90 | Plant response rating, Kochia [4, 21]: 85 | Plant response rating (scale of 0 to 100 where 0 is no effect and 100 is complete control), Lambsquarters [5, 18]: 20 | Lambsquarters plant response rating [5, 19]: 50 | Plant response rating, Lambsquarters [5, 20]: 85 | Plant response rating, Lambsquarters [5, 21]: 75 | Plant response rating (scale of 0 to 100 where 0 is no effect and 100 is complete control), Crabgrass, Large [6, 18]: 5 | Crabgrass, Large plant response rating [6, 19]: 5 | Plant response rating, Crabgrass, Large [6, 20]: 30 | Plant response rating, Crabgrass, Large [6, 21]: 15 | Plant response rating (scale of 0 to 100 where 0 is no effect and 100 is complete control), Blackgrass [7, 18]: 0 | Blackgrass plant response rating [7, 19]: 20 | Plant response rating, Blackgrass [7, 20]: 30 | Plant response rating, Blackgrass [7, 21]: 40 | Pigweed plant response rating ([8]; 62 g ai/ha, scale 0 to 100): 60 | Plant response rating, Pigweed [8, 22]: 90 | Plant response rating, Pigweed [8, 23]: 80 | Plant response rating, Soybean [9, 22]: 95 | Soybean plant response rating [9, 23]: 95 | Plant response rating, Ryegrass, Italian [10, 22]: 5 | Plant response rating, Ryegrass, Italian [10, 23]: 5 | Plant response rating (scale of 0 to 100 where 0 is no effect and 100 is complete control), Johnsongrass [11, 18]: 5 | Johnsongrass plant response rating [11, 19]: 5 | Plant response rating, Johnsongrass [11, 20]: 10 | Plant response rating, Johnsongrass [11, 21]: 5 | Plant response rating (scale of 0 to 100 where 0 is no effect and 100 is complete control), Oat, Wild [12, 18]: 10 | Oat, Wild plant response rating [12, 19]: 10 | Plant response rating, Oat, Wild [12, 20]: 45 | Plant response rating, Oat, Wild [12, 21]: 20 | Plant response rating, Ragweed [13, 22]: 80 | Plant response rating, Ragweed [13, 23]: 55 | Plant response rating (scale of 0 to 100 where 0 is no effect and 100 is complete control), Galium [14, 18]: 50 | Galium plant response rating [14, 19]: 85 | Plant response rating, Galium [14, 20]: 90 | Plant response rating, Galium [14, 21]: 85 | Plant response rating (scale of 0 to 100 where 0 is no effect and 100 is complete control), Corn [15, 18]: 5 | Corn plant response rating [15, 19]: 10 | Plant response rating, Corn [15, 20]: 15 | Plant response rating, Corn [15, 21]: 10 | Plant response rating, Wheat [16, 22]: 10 | Wheat plant response rating ([16]; scale 0 to 100): 5 | Plant response rating, Velvetleaf [17, 22]: 50 | Velvetleaf plant response rating ([17]; scale 0 to 100): 40

Source: patent publication US20150105252A1, “SUBSTITUTED PYRAZOLES AS HERBICIDES” (E I DU PONT DE NEMOURS AND COMPANY, priority 2013, published 2015)
